According to the supplement of paper PMC11061612:

Experiments:
Assay in all cases: combination Emax (second highest fraction inhibited in the dose matrix, 72 h); higher = more inhibition; extreme values may be limits of the assay
8-MG-BA (Glioblastoma) = tested on: 8-MG-BA (Glioblastoma)
Procedure, shortened: (§1)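 Cell lines in DMEM/F12 or RPMI with 10% FBS were plated in 1536-well plates, held 24 hours at 37°C, 5% CO2, then given two-drug dose matrices for 72 hours (DMSO typically 0.2%). Viability was read by CellTiter-Glo 2.0 luminescence and scaled as inhibition from 0 (vehicle wells) to 1 (blank wells). Combination Emax is the second-highest inhibition in the matrix; Bliss excess is observed combination effect minus expected EA + EB − EA·EB, EA and EB being single-agent effects.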

[1] = tested on: A549 (Lung Adenocarcinoma)
Procedure, shortened: as §1

ARH-77 (Non-Cancerous) = tested on: ARH-77 (Non-Cancerous)
Procedure, shortened: as §1

[2] = tested on: BICR22 (Oral Cavity Carcinoma)
Procedure, shortened: as §1

[3] = tested on: ECC10 (Gastric Carcinoma)
Procedure, shortened: as §1

GI-ME-N (Neuroblastoma) = tested on: GI-ME-N (Neuroblastoma)
Procedure, shortened: as §1

[4] = tested on: JSC-1 (B-Cell Non-Hodgkin's Lymphoma)
Procedure, shortened: as §1

[5] = tested on: NCI-H1650 (Lung Adenocarcinoma)
Procedure, shortened: as §1

[6] = tested on: NCI-H1666 (Lung Adenocarcinoma)
Procedure, shortened: as §1

[7] = tested on: NCI-H2141 (Small Cell Lung Carcinoma)
Procedure, shortened: as §1

NCI-H2591 (Mesothelioma) = tested on: NCI-H2591 (Mesothelioma)
Procedure, shortened: as §1

[8] = tested on: NCI-H64 (Small Cell Lung Carcinoma)
Procedure, shortened: as §1

NY (Osteosarcoma) = tested on: NY (Osteosarcoma)
Procedure, shortened: as §1

[9] = tested on: ONS-76 (Other Solid Carcinomas)
Procedure, shortened: as §1

[10] = tested on: OS-RC-2 (Kidney Carcinoma)
Procedure, shortened: as §1

[11] = tested on: PANC-10-05 (Pancreatic Carcinoma)
Procedure, shortened: as §1

[12] = tested on: SK-MES-1 (Squamous Cell Lung Carcinoma)
Procedure, shortened: as §1

[13] = tested on: SK-MG-1 (Low Grade Glioma)
Procedure, shortened: as §1

[14] = tested on: TT2609-C02 (Thyroid Gland Carcinoma)
Procedure, shortened: as §1

U-2-OS (Osteosarcoma) = tested on: U-2-OS (Osteosarcoma)
Procedure, shortened: as §1

SMILES	combination Emax (8-MG-BA (Glioblastoma))	combination Emax [1]	combination Emax (ARH-77 (Non-Cancerous))	combination Emax [2]	combination Emax [3]	combination Emax (GI-ME-N (Neuroblastoma))	combination Emax [4]	combination Emax [5]	combination Emax [6]	combination Emax [7]	combination Emax (NCI-H2591 (Mesothelioma))	combination Emax [8]	combination Emax (NY (Osteosarcoma))	combination Emax [9]	combination Emax [10]	combination Emax [11]	combination Emax [12]	combination Emax [13]	combination Emax [14]	combination Emax (U-2-OS (Osteosarcoma))
COc1cccc(OCCCN)c1-c1cc(Nc2cnc(C#N)cn2)n[nH]1 [Prexasertib] + C=CCn1c(=O)c2cnc(Nc3ccc(N4CCN(C)CC4)cc3)nc2n1-c1cccc(C(C)(C)O)n1 [AZD1775] (first compound max 1 µM, partner max 1 µM)	0.977	0.776	0.996	0.813	0.904	0.513	0.998	0.6	0.431	0.588	0.472	0.925	0.663	0.829	0.519	0.595	0.777	0.908	0.449	0.934
COc1nnc2ccc(N3CCC(c4ccc(OCCN5CCN(C)C(=O)[C@H]5C)cc4)CC3)nn12 [AZD5153] + Cc1c2c(nn1C)CSCc1cc(n(C)n1)CSc1cc(c3ccccc3c1)OCCCc1c(C(=O)O)n(C)c3c-2c(Cl)ccc13 [AZD5991] (first compound max 1 µM, 7x7, partner max 1 µM)	0.94	0.821	0.831	0.901	1	0.377	1	0.441	0.423	0.346	0.368	0.399	0.688	0.497	0.372	0.515	0.558	0.425	0.454	0.418
Cc1c2c(nn1C)CSCc1cc(n(C)n1)CSc1cc(c3ccccc3c1)OCCCc1c(C(=O)O)n(C)c3c-2c(Cl)ccc13 [AZD5991] + C=CCn1c(=O)c2cnc(Nc3ccc(N4CCN(C)CC4)cc3)nc2n1-c1cccc(C(C)(C)O)n1 [AZD1775] (first compound max 1 µM, partner max 1 µM)	0.906	0.425	0.995	0.717	0.858	0.532	1	0.548	0.338	0.652	0.266	0.933	0.747	0.584	0.303	0.573	0.593	0.783	0.617	0.809
Cn1cnc2c(F)c(Nc3ccc(Br)cc3Cl)c(C(=O)NOCCO)cc21 [Selumetinib] + C[C@@H]1COCCN1C2=NC(=NC(=C2)C3(CC3)[S@](=N)(=O)C)C4=C5C=CNC5=NC=C4 [AZD6738] (first compound max 10 µM, 7x7, partner max 10 µM)	0.792	0.875	0.946	0.722	0.443	0.312	0.957	0.333	0.516	0.409	0.339	0.808	0.617	0.771	0.304	0.613	0.687	0.387	0.506	0.624
Cc1cc2ncnn2cc1Nc1ncc2c(n1)n(C1CCOCC1)c(=O)n2C [AZD7648] + O=C(c1cc(Cc2n[nH]c(=O)c3ccccc23)ccc1F)N1CCN(C(=O)C2CC2)CC1 [Olaparib] (first compound max 10 µM, 7x7, partner max 10 µM)	0.329	0.59	0.522	0.141	0.158	0.141	0.0503	0.0772	0.0994	0.218	0.248	0.134	0.14	0.246	0.224	0.299	0.177	0.238	0.156	0.118
CN(CCO)CC[C@H](CSc1ccccc1)Nc1ccc(S(=O)(=O)NC(=O)c2ccc(N3CCC([C@@H](O)c4ccccc4-c4ccc(Cl)cc4)CC3)cc2)cc1S(=O)(=O)C(F)(F)F [AZD4320] + CN(C)CCCOc1ccc(-c2ccc3ncc4c(c3c2)n(C2CCOCC2)c(=O)n4C)cn1 [AZD0156] (first compound max 1 µM, 7x7, partner max 1 µM)	0.0798	0.175	0.793	0.546	1	0.156	0.116	0.0865	0.141	0.801	0.13	0.973	0.0862	0.178	0.209	0.373	0.208	0.274	0.148	0.259
CCN(CCO)CCCOc1ccc2c(Nc3cc(CC(=O)Nc4cccc(F)c4)[nH]n3)ncnc2c1 [AZD2811] + C[C@@H]1COCCN1C2=NC(=NC(=C2)C3(CC3)[S@](=N)(=O)C)C4=C5C=CNC5=NC=C4 [AZD6738] (first compound max 1 µM, 7x7, partner max 10 µM)	0.785	0.775	0.941	0.729	0.876	0.552	0.744	0.414	0.28	0.502	0.315	0.781	0.619	0.908	0.429	0.389	0.668	0.515	0.331	0.642
